Read-outs that look alike come from different tables or passages of the source.
How the values were obtained:
Tyk2 kinase domain (DH1) = Tyk2 kinase domain (DH1) (Homo sapiens (Human), UniProt P29597); test: Tyk2 Radioactive Kinase Assay; assay type: biochemical; details: for inhibition at 10 µM: read-out: Tyk2 JH1% Inhibition @ 10 μM
Outline: (§1)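 Values are single-concentration percent inhibition figures. They were obtained with 10 μM compound in a radioactivity-based kinase assay run separately on each enzyme.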

[1] = molecular target: human TYK2 (JH2domain-pseudokinase) (Homo sapiens (Human), UniProt P29597); test: TYK2 JH2 Domain Binding Assay (KINOMEscan)
human TYK2 (JH2domain-pseudokinase), sequence (P29597 556-888): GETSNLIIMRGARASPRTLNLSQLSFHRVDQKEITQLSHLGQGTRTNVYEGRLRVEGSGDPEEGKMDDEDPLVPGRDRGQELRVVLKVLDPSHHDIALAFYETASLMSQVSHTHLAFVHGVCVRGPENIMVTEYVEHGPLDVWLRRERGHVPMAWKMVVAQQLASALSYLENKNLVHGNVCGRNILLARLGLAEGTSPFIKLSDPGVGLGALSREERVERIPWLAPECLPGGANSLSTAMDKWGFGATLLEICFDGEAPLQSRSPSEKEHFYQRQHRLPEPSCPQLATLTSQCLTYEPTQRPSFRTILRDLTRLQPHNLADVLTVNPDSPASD
Outline: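 Kds, run in duplicate, came from Hill fits (slope fixed at −1) of an 11-point 3-fold dilution series starting at 30,000 nM. Bead-retained TYK2 JH2 (aa G556–D888)–NFkB DBD fusion, DNA-tagged and expressed in HEK293 cells, was read by qPCR after 1 h room-temperature binding in 0.9% DMSO.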

JAK2 kinase domain (JH1) = JAK2 kinase domain (JH1) (Homo sapiens (Human), UniProt O60674); test: JAK2 Radioactive Kinase Assay; assay type: biochemical; details: for inhibition at 10 µM: read-out: JAK2 JH1% Inhibition @ 10 μM
JAK2 kinase domain (JH1), sequence (O60674 849-1124): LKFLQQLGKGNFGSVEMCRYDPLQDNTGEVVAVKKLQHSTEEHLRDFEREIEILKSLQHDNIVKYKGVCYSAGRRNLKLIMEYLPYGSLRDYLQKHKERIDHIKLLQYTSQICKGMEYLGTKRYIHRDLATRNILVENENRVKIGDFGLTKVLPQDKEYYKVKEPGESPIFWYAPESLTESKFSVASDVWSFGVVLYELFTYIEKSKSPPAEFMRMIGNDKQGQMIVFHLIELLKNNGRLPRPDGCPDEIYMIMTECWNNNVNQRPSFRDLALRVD
Outline: as §1

Tyk2 kinase domain (DH1), sequence (P29597 897-1176): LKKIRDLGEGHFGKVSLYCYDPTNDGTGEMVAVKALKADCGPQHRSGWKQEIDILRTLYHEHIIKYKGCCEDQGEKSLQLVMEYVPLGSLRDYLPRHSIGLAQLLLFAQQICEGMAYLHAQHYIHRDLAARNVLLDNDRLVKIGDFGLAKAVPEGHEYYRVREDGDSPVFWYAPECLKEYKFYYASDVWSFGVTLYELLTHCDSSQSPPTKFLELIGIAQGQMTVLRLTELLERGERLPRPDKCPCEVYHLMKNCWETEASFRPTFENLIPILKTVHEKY

Structure (SMILES)	inhibition at 10 µM (Tyk2 kinase domain (DH1); 10 μM compound, 10 μM ATP) [%]	Kd [1] [nM]	inhibition at 10 µM (JAK2 kinase domain (JH1); 10 μM compound, 10 μM ATP) [%]	Tyk2 JH1% Inhibition @ 10 μM (Tyk2 kinase domain (DH1); compound at 10 μM, ATP 10 μM)	JAK2 JH1% Inhibition @ 10 μM (JAK2 kinase domain (JH1); compound at 10 μM, ATP 10 μM)	inhibition at 10 µM (Tyk2 kinase domain (DH1); compound at 10 μM, ATP 10 μM) [%]	inhibition at 10 µM (JAK2 kinase domain (JH1); compound at 10 μM, ATP 10 μM) [%]
CNc1cc(Nc2cccn(C(C)C)c2=O)nc2c(C(=O)N[C@H]3CC[C@@H]3O)cnn12 [I-982]	< 50	0.2 to 1	< 50				
CNc1cc(Nc2cccc([C@@H]3CCCOC3)n2)nc2c(C(=O)N[C@@H]3CC[C@@H]3O)cnn12 [I-643]		0.2 to 1		A (percent inhibition at 10 μM lower than 50)	A (percent inhibition at 10 μM lower than 50)		
[2H]C([2H])([2H])Oc1ncccc1Nc1cc(NC)n2ncc(C(=O)N[C@H]3CCC[C@H](O)C3)c2n1 [I-460]		< 0.2				< 50	< 50
CNc1cc(-c2cn(CCN3CCN(C)CC3)c3ncccc23)nc2c(C(=O)N[C@H]3CC[C@@H]3OC)cnn12 (stereo in doubt) [I-885, N-(2-methoxycyclobutyl)-7-(methylamino)-5-(1-(2-(4-methylpiperazin-1-yl)ethyl)-1H-pyrrolo[2,3-b]pyridine-3-yl)pyrazolo[1,5-a]pyrimidine-3-carboxamide]	< 50	< 0.2	< 50				
CNc1cc(Nc2cccn(-c3cnn(C)c3)c2=O)nc2c(C(=O)NCC(C)CO)cnn12 (stereo not drawn) [I-633]		< 0.2				< 50	< 50
CNc1cc(Nc2cccnc2OC)nc2c(C(=O)N[C@H]3CC[C@H](O)C3)cnn12 [I-467]		0.2 to 1				< 50	< 50
CNc1cc(Nc2cccn(-c3nc(C)co3)c2=O)nc2c(C(=O)NC[C@@H](C)CO)cnn12 [I-737]		< 0.2				< 50	< 50
CNc1cc(Nc2cccn([C@H]3CC[C@](C)(OC)CC3)c2=O)nc2c(C(=O)N[C@@H]3CC[C@H]3OC)cnn12 [I-1106]	< 50	1 to 10	< 50				
CNc1cc(Nc2cccn([C@H]3CCCC[C@H]3OC)c2=O)nc2c(C(=O)N[C@@H]3C[C@@H]3F)cnn12 [I-1045]	< 50	0.2 to 1	< 50				
CNc1cc(Nc2cccnc2OC2CCCCC2)nc2c(C(=O)NC3CCC3)cnn12 [I-226]		1 to 10				< 50	< 50
CNc1cc(-c2cn(CCN3CCN(C)CC3)c3ncccc23)nc2c(C(=O)N[C@@H]3CC[C@H]3O)cnn12 [I-921, N-((1R,2R)-2-hydroxycyclobutyl)-7-(methylamino)-5-(1-(2-(4-methylpiperazin-1-yl)ethyl)-1H-pyrrolo[2,3-b]pyridin-3-yl)pyrazolo[1,5-a]pyrimidine-3-carboxamide]	< 50	0.2 to 1	< 50				
CNc1cc(-c2nn(CCN3CCN(C)CC3)c3ncccc23)nc2c(C(=O)N[C@H]3C[C@H]3F)cnn12 [I-480]		0.2 to 1				< 50	< 50
CNc1cc(Nc2cc(Cl)cn(C3CCN(C)CC3)c2=O)nc2c(C(=O)N[C@H]3CC[C@H]3O)cnn12 [I-1006]	< 50	< 0.2	< 50				
CNc1cc(Nc2cc(Cl)cnc2O[C@H]2C[C@@H](OC)C2)nc2c(C(N)=O)cnn12 [I-96]		0.2 to 1				< 50	< 50
CC(C)(O)c1cccc(-n2cccc(Nc3cc(N)n4ncc(C(N)=O)c4n3)c2=O)n1 [I-41]		1 to 10				< 50	< 50
CNc1cc(Nc2cccn(-c3cncc(C)c3)c2=O)nc2c(C(=O)N[C@H]3C[C@H]3F)cnn12 [I-302]		< 0.2				< 50	< 50
CNc1cc(Nc2cc(C)cn(-c3ccn(C)n3)c2=O)nc2c(C(=O)NC3CCC3)cnn12 [I-251]		< 0.2				< 50	< 50
CNc1cc(-c2cn(CCN3CCN(C)CC3)c3ncccc23)nc2c(C(=O)NC3CC3)cnn12 [I-616]		< 0.2				< 50	< 50

Structure (SMILES)	inhibition at 10 µM (Tyk2 kinase domain (DH1); 10 μM compound, 10 μM ATP) [%]	Kd [1] [nM]	inhibition at 10 µM (JAK2 kinase domain (JH1); 10 μM compound, 10 μM ATP) [%]	Tyk2 JH1% Inhibition @ 10 μM (Tyk2 kinase domain (DH1); compound at 10 μM, ATP 10 μM)	JAK2 JH1% Inhibition @ 10 μM (JAK2 kinase domain (JH1); compound at 10 μM, ATP 10 μM)	inhibition at 10 µM (Tyk2 kinase domain (DH1); compound at 10 μM, ATP 10 μM) [%]	inhibition at 10 µM (JAK2 kinase domain (JH1); compound at 10 μM, ATP 10 μM) [%]
CNc1cc(Nc2cccn(-c3ncccc3F)c2=O)nc2c(C(=O)NC[C@@H](C)CO)cnn12 [I-869]	< 50	< 0.2	< 50				
CNc1cc(Nc2cc(F)cnc2OC(C)C)nc2c(C(=O)NC3CCC3)cnn12 [I-210]		0.2 to 1				< 50	< 50
CNc1cc(Nc2cccn(C(C)C)c2=O)nc2c(C(=O)N[C@@H]3CCC[C@@H](O)C3)cnn12 [I-1079]	< 50	0.2 to 1	< 50				
CNc1cc(Nc2cccnc2O[C@H]2C[C@H](OC)C2)nc2c(C(=O)N[C@H]3C[C@H]3F)cnn12 [I-189]		< 0.2				< 50	< 50
CNc1cc(Nc2cccc([C@H]3CCCCO3)n2)nc2c(C(=O)N[C@H]3CC[C@H]3O)cnn12 [I-647]		< 0.2				< 50	< 50
CNc1cc(Nc2cccn([C@H]3CCCOC3)c2=O)nc2c(C(=O)N[C@H]3CC[C@H](O)C3)cnn12 [I-728]		< 0.2		A (percent inhibition at 10 μM lower than 50)	A (percent inhibition at 10 μM lower than 50)		
CNc1cc(Nc2cccc(N3CCC4(CCCO4)CC3)n2)nc2c(C(=O)N[C@@H]3CC[C@@H]3O)cnn12 [I-720]		1 to 10		A (percent inhibition at 10 μM lower than 50)	A (percent inhibition at 10 μM lower than 50)		
CNc1cc(Nc2cccc([C@H]3CCCOC3)n2)nc2c(C(=O)NCC(C)(C)CO)cnn12 [I-579]		< 0.2				< 50	< 50
CNc1cc(-c2cn(CCN3CCOCC3)c3ncccc23)nc2c(C(=O)NCC(C)(C)CO)cnn12 [I-818, N-(3-hydroxy-2,2-dimethylpropyl)-7-(methylamino)-5-(1-(2-morpholinoethyl)-1H-pyrrolo[2,3-b]pyridin-3-yl)pyrazolo[1,5-a]pyrimidine-3-carboxamide]	< 50	0.2 to 1	< 50				
CNc1cc(Nc2cccnc2OC)nc2c(C(=O)N[C@H]3CCC[C@@H]3O)cnn12 [I-449, (S)—N-((1S,2S)-2-hydroxycyclopentyl)-5-((2-methoxypyridin-3-yl)amino)-7-(methylamino) pyrazolo[1,5-a]pyrimidine-3-carboxamide]		0.2 to 1				< 50	< 50
CNc1cc(Nc2cccn(-c3ccn(C4CC4)n3)c2=O)nc2c(C(=O)NC3CC3)cnn12 [I-98]		< 0.2				< 50	< 50
CNc1cc(Nc2cccn(C3CCN(C)CC3)c2=O)nc2c(C(=O)NCC3(CO)CC3)cnn12 [I-543]		0.2 to 1				< 50	< 50
CNc1cc(Nc2cccn([C@@H]3CCC[C@H](OC)C3)c2=O)nc2c(C(=O)N[C@H]3CC[C@@H]3O)cnn12 [I-1055]	< 50	0.2 to 1	< 50				
CNc1cc(Nc2cccnc2OC)nc2c(C(=O)NCCC3CCCO3)cnn12 (stereo not drawn) [I-418, 5-((2-methoxypyridin-3-yl)amino)-7-(methylamino)-N-(2-(tetrahydrofuran-2-yl)ethyl)pyrazolo[1,5-a]pyrimidine-3-carboxamide]		1 to 10				< 50	< 50
CNc1cc(-c2nn([C@@H]3CCOC3)c3ncccc23)nc2c(C(=O)N[C@@H]3C[C@@H]3F)cnn12 [I-517]		0.2 to 1				< 50	< 50
CNc1cc(Nc2cc(Cl)cn([C@@H]3CCCOC3)c2=O)nc2c(C(=O)N[C@H]3[C@@H]4COC[C@@H]43)cnn12 [I-799]		0.2 to 1				< 50	< 50
CNc1cc(Nc2cccn(-c3cncc(C)c3)c2=O)nc2c(C(=O)NC3CC3)cnn12 [I-301]		0.2 to 1				< 50	< 50

Reference: US10508120B2, “TYK2 inhibitors and uses thereof” (Nimbus Lakshmi, Inc., priority 2017, dated 2019)
